In ChEMBL document CHEMBL5113463, “Discovery and preclinical evaluations of JBD0131, a novel nitrodihydro-imidazooxazole anti-tuberculosis agent” (Bioorg Med Chem Lett, 2022):
Values after ≈ are worked out from the molar mass of the structure shown.

Columns and labels:
[1] = AUC (0-last) in CD-1 mouse at 5 mg/kg, po; assay type: ADME, organism-based; parameters: dose 5 mg/kg, route po; details: mouse, in vivo
[2] = Aqueous solubility of compound at pH 7.4; assay type: physicochemical; details: buffer
[3] = Metabolic stability in mouse liver microsomes assessed as half life; assay type: ADME, Microsome
[4] = Oral bioavailability in Beagle dog at 2 mg/kg; assay type: ADME, organism-based, Canis lupus familiaris; details: in vivo
[5] = Apparent permeability across apical to basolateral side in dog MDCK cells; assay type: ADME, cell-based, Canis lupus familiaris
[6] = molecular target: Voltage-gated inwardly rectifying potassium channel KCNH2 (Homo sapiens, UniProt Q12809); assay: Inhibition of human ERG; assay type: toxicity
Chain of Voltage-gated inwardly rectifying potassium channel KCNH2 (Q12809 whole entry): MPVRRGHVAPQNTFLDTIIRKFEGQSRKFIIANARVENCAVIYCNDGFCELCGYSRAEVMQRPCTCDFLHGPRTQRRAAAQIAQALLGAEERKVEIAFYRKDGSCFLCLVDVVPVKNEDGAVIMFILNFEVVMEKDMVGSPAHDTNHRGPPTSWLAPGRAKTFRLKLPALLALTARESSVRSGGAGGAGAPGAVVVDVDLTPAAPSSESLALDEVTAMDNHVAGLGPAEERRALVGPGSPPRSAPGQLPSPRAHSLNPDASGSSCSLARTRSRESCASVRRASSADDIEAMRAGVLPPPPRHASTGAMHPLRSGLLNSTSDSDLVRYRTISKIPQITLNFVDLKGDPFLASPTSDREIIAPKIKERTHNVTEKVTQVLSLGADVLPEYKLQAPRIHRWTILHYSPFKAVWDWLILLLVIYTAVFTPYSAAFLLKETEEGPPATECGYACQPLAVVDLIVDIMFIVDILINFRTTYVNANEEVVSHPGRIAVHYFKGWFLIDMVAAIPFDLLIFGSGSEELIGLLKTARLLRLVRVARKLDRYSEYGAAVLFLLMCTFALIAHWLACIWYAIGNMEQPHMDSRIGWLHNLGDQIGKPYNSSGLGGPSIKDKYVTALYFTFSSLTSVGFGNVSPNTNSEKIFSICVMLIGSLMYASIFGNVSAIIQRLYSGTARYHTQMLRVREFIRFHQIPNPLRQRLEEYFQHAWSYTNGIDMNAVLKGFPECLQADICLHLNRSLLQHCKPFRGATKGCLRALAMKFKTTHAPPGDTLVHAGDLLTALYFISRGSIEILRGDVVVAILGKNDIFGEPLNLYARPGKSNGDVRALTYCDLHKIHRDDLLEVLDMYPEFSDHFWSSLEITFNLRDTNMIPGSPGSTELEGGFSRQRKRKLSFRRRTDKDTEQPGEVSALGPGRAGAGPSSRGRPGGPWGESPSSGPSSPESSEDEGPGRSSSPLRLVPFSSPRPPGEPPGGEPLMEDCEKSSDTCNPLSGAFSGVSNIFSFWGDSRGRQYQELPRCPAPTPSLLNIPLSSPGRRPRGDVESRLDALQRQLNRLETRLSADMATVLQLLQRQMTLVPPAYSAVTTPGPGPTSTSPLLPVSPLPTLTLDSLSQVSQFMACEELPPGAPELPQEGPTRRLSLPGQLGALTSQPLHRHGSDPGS

Cytochrome P450 2D6 = Cytochrome P450 2D6 (Homo sapiens, UniProt P10635); assay: Inhibition of CYP2D6 (unknown origin); assay type: ADME
Chain of Cytochrome P450 2D6 (P10635 whole entry): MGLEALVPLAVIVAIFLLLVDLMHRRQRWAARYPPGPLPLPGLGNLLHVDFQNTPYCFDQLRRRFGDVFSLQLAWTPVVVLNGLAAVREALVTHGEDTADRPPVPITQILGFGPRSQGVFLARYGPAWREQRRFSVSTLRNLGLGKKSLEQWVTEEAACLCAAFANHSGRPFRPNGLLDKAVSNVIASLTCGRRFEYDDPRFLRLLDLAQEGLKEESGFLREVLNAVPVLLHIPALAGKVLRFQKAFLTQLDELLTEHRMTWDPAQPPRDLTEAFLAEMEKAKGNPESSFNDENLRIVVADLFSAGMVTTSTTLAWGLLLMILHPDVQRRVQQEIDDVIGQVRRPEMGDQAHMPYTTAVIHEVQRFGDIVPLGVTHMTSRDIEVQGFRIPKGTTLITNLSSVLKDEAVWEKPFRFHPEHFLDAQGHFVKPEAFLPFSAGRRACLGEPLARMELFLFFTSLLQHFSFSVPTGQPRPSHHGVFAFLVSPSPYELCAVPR

Cytochrome P450 2C9 = Cytochrome P450 2C9 (Homo sapiens, UniProt P11712); assay: Inhibition of CYP2C9 (unknown origin); assay type: ADME
Chain of Cytochrome P450 2C9 (P11712 whole entry): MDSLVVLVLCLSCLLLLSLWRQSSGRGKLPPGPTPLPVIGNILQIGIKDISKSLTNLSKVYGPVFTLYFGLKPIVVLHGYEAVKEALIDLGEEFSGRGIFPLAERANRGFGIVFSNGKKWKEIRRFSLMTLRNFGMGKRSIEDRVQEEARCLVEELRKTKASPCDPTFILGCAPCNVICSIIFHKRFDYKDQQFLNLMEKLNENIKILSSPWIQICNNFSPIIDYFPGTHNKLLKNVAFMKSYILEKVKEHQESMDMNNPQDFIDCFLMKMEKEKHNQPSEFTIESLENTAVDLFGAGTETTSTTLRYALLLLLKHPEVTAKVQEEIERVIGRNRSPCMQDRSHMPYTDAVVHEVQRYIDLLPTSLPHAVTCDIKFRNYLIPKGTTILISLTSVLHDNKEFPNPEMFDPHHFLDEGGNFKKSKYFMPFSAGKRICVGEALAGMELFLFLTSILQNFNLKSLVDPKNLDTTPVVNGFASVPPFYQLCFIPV

Cytochrome P450 3A4 = Cytochrome P450 3A4 (Homo sapiens, UniProt P08684); assay: Inhibition of CYP3A4 (unknown origin); assay type: ADME
Chain of Cytochrome P450 3A4 (P08684 whole entry): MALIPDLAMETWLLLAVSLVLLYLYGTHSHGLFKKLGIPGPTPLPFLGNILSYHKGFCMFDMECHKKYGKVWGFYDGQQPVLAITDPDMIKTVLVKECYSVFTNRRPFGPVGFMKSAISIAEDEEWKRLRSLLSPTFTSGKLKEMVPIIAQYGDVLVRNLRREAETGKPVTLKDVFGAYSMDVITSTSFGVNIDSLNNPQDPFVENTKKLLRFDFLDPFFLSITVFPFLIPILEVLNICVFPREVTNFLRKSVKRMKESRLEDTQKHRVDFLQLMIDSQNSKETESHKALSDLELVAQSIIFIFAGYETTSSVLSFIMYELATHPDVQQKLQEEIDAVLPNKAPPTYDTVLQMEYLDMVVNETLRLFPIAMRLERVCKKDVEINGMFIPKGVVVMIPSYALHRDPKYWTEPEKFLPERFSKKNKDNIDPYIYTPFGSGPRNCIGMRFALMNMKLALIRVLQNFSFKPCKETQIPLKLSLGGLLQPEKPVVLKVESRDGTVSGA

[7] = molecular target: Sodium channel protein type 5 subunit alpha (Homo sapiens, UniProt Q14524); assay: Inhibition of NaV 1.5 (unknown origin)
Chain of Sodium channel protein type 5 subunit alpha (Q14524 whole entry): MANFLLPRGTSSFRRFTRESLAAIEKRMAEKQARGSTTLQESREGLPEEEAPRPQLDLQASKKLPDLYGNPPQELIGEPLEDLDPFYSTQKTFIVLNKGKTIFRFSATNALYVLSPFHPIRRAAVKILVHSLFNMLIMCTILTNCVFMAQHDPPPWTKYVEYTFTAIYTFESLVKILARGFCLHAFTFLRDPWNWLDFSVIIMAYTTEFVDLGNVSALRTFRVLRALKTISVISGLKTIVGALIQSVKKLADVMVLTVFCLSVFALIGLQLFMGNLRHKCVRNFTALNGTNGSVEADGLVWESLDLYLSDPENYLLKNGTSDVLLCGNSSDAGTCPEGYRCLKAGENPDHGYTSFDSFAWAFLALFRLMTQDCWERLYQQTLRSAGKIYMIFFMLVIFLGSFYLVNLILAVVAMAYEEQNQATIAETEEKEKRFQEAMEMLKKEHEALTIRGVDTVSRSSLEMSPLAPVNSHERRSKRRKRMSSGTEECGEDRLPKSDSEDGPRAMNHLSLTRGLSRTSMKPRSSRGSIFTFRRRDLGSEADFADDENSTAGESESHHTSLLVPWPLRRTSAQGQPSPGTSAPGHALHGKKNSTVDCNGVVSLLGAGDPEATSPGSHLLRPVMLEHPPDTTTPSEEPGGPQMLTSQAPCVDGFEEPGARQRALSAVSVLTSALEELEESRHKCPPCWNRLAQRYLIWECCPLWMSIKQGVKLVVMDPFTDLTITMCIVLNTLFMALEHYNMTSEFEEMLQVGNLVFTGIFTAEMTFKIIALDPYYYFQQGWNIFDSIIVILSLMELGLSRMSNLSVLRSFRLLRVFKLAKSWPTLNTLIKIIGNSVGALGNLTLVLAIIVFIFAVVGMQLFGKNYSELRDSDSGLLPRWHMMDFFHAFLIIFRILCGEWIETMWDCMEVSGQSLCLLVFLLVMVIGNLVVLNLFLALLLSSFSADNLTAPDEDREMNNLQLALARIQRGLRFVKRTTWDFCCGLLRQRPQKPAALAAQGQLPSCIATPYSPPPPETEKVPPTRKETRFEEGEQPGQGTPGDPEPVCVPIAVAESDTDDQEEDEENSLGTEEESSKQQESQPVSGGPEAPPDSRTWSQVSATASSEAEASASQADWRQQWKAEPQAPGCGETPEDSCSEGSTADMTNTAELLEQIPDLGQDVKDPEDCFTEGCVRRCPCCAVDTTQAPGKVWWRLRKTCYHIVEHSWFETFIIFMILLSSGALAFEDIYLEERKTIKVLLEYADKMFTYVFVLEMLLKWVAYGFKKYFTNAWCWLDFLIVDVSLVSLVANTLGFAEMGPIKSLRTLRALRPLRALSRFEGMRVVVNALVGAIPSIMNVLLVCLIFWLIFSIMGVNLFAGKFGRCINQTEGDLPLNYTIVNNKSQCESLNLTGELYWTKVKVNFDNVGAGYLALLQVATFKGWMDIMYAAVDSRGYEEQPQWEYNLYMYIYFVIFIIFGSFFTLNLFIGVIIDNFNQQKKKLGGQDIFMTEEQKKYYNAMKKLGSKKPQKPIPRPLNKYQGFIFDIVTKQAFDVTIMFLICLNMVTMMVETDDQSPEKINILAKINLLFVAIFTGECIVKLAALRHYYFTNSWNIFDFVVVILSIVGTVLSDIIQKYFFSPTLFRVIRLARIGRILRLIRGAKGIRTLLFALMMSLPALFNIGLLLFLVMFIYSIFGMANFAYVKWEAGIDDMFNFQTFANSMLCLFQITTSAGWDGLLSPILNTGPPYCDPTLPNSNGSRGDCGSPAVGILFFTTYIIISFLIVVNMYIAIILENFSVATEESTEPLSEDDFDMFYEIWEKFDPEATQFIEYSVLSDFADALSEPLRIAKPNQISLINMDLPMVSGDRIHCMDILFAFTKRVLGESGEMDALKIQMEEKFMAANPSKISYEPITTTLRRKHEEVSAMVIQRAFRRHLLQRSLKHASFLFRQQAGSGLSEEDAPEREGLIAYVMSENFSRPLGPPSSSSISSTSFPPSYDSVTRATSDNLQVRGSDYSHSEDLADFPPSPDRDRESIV

[8] = AUC (0-last) in Beagle dog at 2 mg/kg, po; assay type: ADME, organism-based, Canis lupus familiaris; details: in vivo
[9] = Cytotoxicity against African green monkey vero cells assessed as reduction in cell viability; assay type: toxicity, cell-based; details: chlorocebus sabaeus
[10] = Metabolic stability in dog liver microsomes assessed as half life; assay type: ADME, Canis lupus familiaris, Microsome
[11] = Drug distribution in Sprague-Dawley rat intestinal wall at 10 mg/kg, po administered as C14-lableled compound and assessed as radioactivity; assay type: ADME, organism-based, Intestine; details: in vivo
[12] = Half life in Sprague-Dawley rat at 1 mg/kg, iv; assay type: ADME, organism-based; details: in vivo
[13] = tested on: Mycobacterium tuberculosis; assay: Antimycobacterial activity against Mycobacterium tuberculosis H37Rv assessed as bacterial growth inhibition incubated for 10 days under hypoxic condition followed by 28 hrs incubation under normoxic condition by Low-Oxygen-Recovery Assay; assay type: functional; details: 264 h, time 11 day
[14] = Metabolic stability in human liver microsomes assessed as half life; assay type: ADME, Microsome
[15] = Volume of distribution in Sprague-Dawley rat at 1 mg/kg, iv; assay type: ADME, organism-based; details: in vivo
[16] = Clearance in Sprague-Dawley rat at 1 mg/kg, iv; assay type: ADME, organism-based; details: in vivo
[17] = Clearance in Beagle dog at 0.5 mg/kg, iv; assay type: ADME, organism-based, Canis lupus familiaris; details: in vivo
[18] = tested on: Mycobacterium tuberculosis; assay: Antimycobacterial activity against Mycobacterium tuberculosis H37Rv assessed as bacterial growth inhibition incubated for 7 days by MABA assay; assay type: functional; details: 168 h, time 7 day
Cytochrome P450 2C19 = Cytochrome P450 2C19 (Homo sapiens, UniProt P33261); assay: Inhibition of CYP2C19 (unknown origin); assay type: ADME
[19] = Plasma protein binding in mouse assessed as bound fraction; assay type: ADME, cell-free; details: read-out: PPB (converted)
Cytochrome P450 2C8 = molecular target: T1, Cytochrome P450 2C8 (Homo sapiens, UniProt P10632); assay: Inhibition of CYP2C8 (unknown origin); assay type: ADME
T1 sequence (P10632 whole entry): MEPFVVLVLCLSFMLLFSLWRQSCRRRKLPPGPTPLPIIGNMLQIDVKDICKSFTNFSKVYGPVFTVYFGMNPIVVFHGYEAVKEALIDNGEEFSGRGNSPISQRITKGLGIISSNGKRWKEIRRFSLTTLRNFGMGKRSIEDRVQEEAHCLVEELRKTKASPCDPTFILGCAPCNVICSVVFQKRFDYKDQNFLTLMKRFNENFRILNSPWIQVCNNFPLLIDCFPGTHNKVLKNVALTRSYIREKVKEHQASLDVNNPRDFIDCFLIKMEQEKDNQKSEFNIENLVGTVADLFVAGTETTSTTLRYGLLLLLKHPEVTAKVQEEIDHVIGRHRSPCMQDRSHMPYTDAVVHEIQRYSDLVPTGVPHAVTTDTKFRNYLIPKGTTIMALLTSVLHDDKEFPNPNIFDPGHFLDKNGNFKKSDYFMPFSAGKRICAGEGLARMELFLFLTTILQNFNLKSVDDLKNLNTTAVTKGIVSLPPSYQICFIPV

[20] = AUC (0-last) in Sprague-Dawley rat at 4 mg/kg, po; assay type: ADME, organism-based; details: in vivo
[21] = Cmax in Sprague-Dawley rat at 4 mg/kg, po; assay type: ADME, organism-based; parameters: dose 4 mg/kg, route po; details: in vivo
[22] = Mutagenicity in Salmonella typhimurium by Ames test; assay type: toxicity; details: salmonella enterica subsp. enterica serovar typhimurium; route au

C[C@]1(CN2Cc3nc(-c4ccc(F)cc4)sc3C2)CN=C(N)O1
AUClast [1]: 7247 ng·h/mL
solubility [2]: 13.5 µM (≈ 4.49 µg/mL)
half-life [3]: 63 min
bioavailability [4]: 26.4%
Papp A→B [5]: 20.9 ×10⁻⁶ cm/s
IC50 [6]: > 13.3 µM
IC50 (Cytochrome P450 2D6): 80.6 µM
IC50 (Cytochrome P450 2C9): > 100 µM
IC50 (Cytochrome P450 3A4): > 100 µM
IC50 [7]: > 13.3 µM
AUClast [8]: 1910 ng·h
CC50 [9]: > 32 µg/mL
half-life [10]: 151 min
Drug uptake [11]: Active
half-life [12]: 167 min
MIC [13]: 5.63 µg/mL (≈ 16.9 µM)
half-life [14]: 107 min
Vd [15]: 5.56 L/kg
clearance [16]: 24.6 mL/min/kg
clearance [17]: 12 mL/min/kg
MIC [18]: 0.035 µg/mL (≈ 0.105 µM)
IC50 (Cytochrome P450 2C19): > 100 µM
fraction unbound [19]: 0.018
IC50 (Cytochrome P450 2C8): > 100 µM
AUClast [20]: 4520 ng·h
Cmax [21]: 526 nM
Activity [22]: Non-Toxic
